Test results from patent publication EP4603099A1 (priority 2022, dated 2024).
Entries after “also recorded” stand apart in the source; their conditions may differ.

Legend:
[1] = system: IAV (H1N1, seasonal isolated strain in 2019); assay type: cell-based, influenza A virus; conditions: human lung explant, 10 µM TFMT; compared with untreated sample
[2] = in vivo toxicity in mouse, nasal cavity inoculation, change in body weight; conditions: 2 mg/kg intranasally on day 0 and day 1, C57BL/6 mice
Experimental: Next, the in vivo toxicity in the mouse was evaluated by carrying out nasal cavity inoculation once a day for two days.
TFMT or tubercidin at 2 mg/kg was intranasally administered to C57BL/6 mice on the 0th day of infection and the 1st day of infection (indicated by arrows in the figure).

human Mtr1 [3] = target: T1, human Mtr1 (Homo sapiens, UniProt Q8N1G2); assay: methyltransferase (MTase) activity assay; conditions: 0.8 µM human MTr1, cap0 RNA, SAM[3H], 37°C overnight
T1 sequence (Q8N1G2 1-835): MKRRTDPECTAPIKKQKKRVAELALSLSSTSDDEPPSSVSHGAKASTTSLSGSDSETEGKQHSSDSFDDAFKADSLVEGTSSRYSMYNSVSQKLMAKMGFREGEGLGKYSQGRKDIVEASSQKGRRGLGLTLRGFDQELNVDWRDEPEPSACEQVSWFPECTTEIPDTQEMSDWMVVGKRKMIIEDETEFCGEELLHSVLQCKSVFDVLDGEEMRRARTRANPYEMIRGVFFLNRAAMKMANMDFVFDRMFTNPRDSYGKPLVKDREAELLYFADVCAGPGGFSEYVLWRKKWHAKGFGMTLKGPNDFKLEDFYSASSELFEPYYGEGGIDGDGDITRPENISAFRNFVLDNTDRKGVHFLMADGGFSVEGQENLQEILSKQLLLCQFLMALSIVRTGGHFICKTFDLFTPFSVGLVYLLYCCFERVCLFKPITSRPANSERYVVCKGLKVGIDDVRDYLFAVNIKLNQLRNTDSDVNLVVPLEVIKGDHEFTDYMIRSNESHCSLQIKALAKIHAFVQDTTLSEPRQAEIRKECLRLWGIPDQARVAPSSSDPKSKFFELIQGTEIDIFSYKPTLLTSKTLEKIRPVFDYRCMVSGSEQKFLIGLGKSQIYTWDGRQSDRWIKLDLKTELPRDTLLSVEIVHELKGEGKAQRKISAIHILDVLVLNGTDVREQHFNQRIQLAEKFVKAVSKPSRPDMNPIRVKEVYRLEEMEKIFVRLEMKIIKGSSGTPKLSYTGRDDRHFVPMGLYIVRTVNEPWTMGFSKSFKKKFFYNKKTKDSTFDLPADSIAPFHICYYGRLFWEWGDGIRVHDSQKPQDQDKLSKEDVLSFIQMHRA
Experimental: The synthesized RNA, 3'-O-Me-m7GpppGpG (pN27), was used in a methyltransferase activity assay of human MT r1.
The reaction sample was purified using a mini quick oligo column (Roche, 11814397001), and free SAM [3H] was removed. The purified sample was diluted with ULTIMA GOLD (PerkinElmer, 6013329), and the methyltransferase activity was measured in terms of the number of disintegrations per minute (DPM) by using a scintillation counter LS6500 (Beckman Coulter).

IAV-GFP SC35M strain = assay type: cell-based, influenza A virus
IBV = assay: qRT-PCR analysis of IBV RNA in infected A549 cells; assay type: cell-based, influenza B virus
Experimental: (§1) The cells were recovered with TRIzol (Invitrogen, 15596), and RNA was extracted according to the manufacturer's protocol. The cDNA was purified using a High-Capacity cDNA Reverse Transcription Kit (Applied Biosystems, 43688). Quantitative reverse transcription polymerase chain reaction (qRT-PCR) was carried out using a Fast SYBR Green Master Mix (Applied Biosystems, 4385614) or a TaqMan Fast Advanced Master Mix (Applied Biosystems, 4444558).

human Mtr1 [4] = target: T1, human Mtr1; assay: thermal shift assay using SYPRO Orange; conditions: ribavirin as control
IFN-β RNA = assay: qRT-PCR analysis of IFN-β RNA and other host RNAs in A549 cells; assay type: cell-based, human; conditions: A549 infected or not with IAV PR8 (m.o.i. 1), 10 µM TFMT
Experimental: as §1
1 was analyzed in the presence or absence of 10 µM TFMT.
Each RNA indicated in the figure at the indicated moment at the m.o.i. of 1, in A549 cells which had been infected or not infected with the IAV PR8 strain in the presence or absence of 10 µM TFMT, was analyzed.

HAZV [5] = assay type: cell-based, Hazara virus
IAV WSN = assay: mouse in vivo IAV infection model, qRT-PCR of IAV RNA in lung tissue; set-up: species or system C57BL/6 mice; conditions: 2 mg/kg intranasally on day 0 and day 1; 2 days after infection, 5 × 10^3 PFU
Experimental: As shown in the figure, the IAV WSN and TFMT were introduced into the nasal cavity. TFMT was added on the 0th day of the IAV WSN infection and the 1st day of the IAV WSN infection.
qRT-PCR analysis (5 × 10^3 PFU) of IAV RNA in the lung tissue of the IAV-infected C57BL/6 mice on the 2nd day was carried out. TFMT of 2 mg/kg was intranasally administered on the 0th day of infection and the 1st day of infection. […] (*p < 0.05, **p < 0.01).

STBV = assay: qRT-PCR analysis of STBV RNA in infected A549 cells; assay type: cell-based, Soft tick bunya virus; conditions: A549, m.o.i. 0.1, 24 hours
Experimental: as §1

IAV PR8 strain [6] = system: IAV PR8 strain
IAV PR8 strain [7] = assay type: cell-based, influenza A virus
HAZV [8] = assay type: cell-based, Hazara virus; remark: listed apart in the source
[9] = NHBE cells, m.o.i. 1, 24 hours, […]

Nc1ncnc2c1c(C(F)(F)F)cn2[C@@H]1O[C@H](CO)[C@@H](O)[C@H]1O [TFMT, trifluoromethyl tubercidin]
virus titer, second figure printed in the same sentence ('and was 100 to 1,000') [1]: 100 to 1,000

Nc1ncnc2c1ccn2[C@@H]1O[C@H](CO)[C@@H](O)[C@H]1O [tubercidin]
change in body weight [2]: caused a significant body weight loss
MTase activity of the recombinant MTr1 protein (human Mtr1 [3]): inhibits the MTase activity of the recombinant MTr1 protein in a dosage-dependent manner
toxicity (WST-8) (A549 cells; A549 infected with IAV-GFP, 19 hours, tubercidin 0.1 to 100 µM): the toxicity was slight
anti-IAV activity, rank among 12 commercially available compounds (GFP level) (IAV-GFP SC35M strain): identified as the most effective compound
inhibition of IAV-GFP (GFP level), dose dependence (IAV-GFP SC35M strain): the inhibition depended on the dose at 0.1 to 100 µM
effect on IBV infection (IBV; A549, compound added 3 hours before infection (FIG. 19(d))): had an effect on the IBV infectious disease
binding to recombinant MTr1 (thermal shift) (human Mtr1 [4]): directly binds to the recombinant MTr1

trifluoromethyl tubercidin [TFMT]
induction of IFN-β or antiviral ISG (qRT-PCR) (IFN-β RNA): did not induce IFN-β or antiviral ISG
antiviral activity against HAZV (virus RNA, qRT-PCR) (HAZV [5]): does not exhibit an antiviral activity
change in body weight [2]: does not cause body weight loss or cell cytotoxicity
MTase activity of the recombinant MTr1 protein (human Mtr1 [3]): inhibited
cell cytotoxicity of combined treatment (WST-8) (A549 cells): without cell cytotoxicity
in vitro toxicity (WST-8 cell survival rate assay) (A549 cells; A549, within the effective concentration range): no significant in vitro toxicity was confirmed within the effective concentration range
IAV NP level in the mouse lung (IAV RNA segment 5, qRT-PCR) (IAV WSN): significantly reduced
PB2 mRNA level in the mouse lung (IAV RNA segment 1, qRT-PCR) (IAV WSN): significantly reduced
antiviral activity against STBV (virus RNA, qRT-PCR) (STBV): does not exhibit an antiviral activity
IAV replication (GFP level), time of addition (IAV-GFP SC35M strain): significantly inhibited IAV replication; also recorded: the effect was reduced or could not be confirmed
inhibition at the lowest concentration, secondary screening step 3 (IAV-GFP SC35M strain): identified as the most effective compound
synergistic effect with amantadine (GFP relative fluorescence units, combination index) (IAV-GFP SC35M strain; combination of TFMT and amantadine, […]): exhibited a synergistic effect
synergistic effect with BXM (GFP relative fluorescence units, combination index) (IAV-GFP SC35M strain; combined treatment of TFMT and BXM, […]): a strong synergistic effect was observed
IC50 (IAV-GFP SC35M strain; read-out: IC50 for IAV infection): 300 nM
cell cytotoxicity in NHBE cells (histological analysis) (IAV PR8 strain [6]): without cell cytotoxicity
RNA level of IAV (segment 7, qRT-PCR) (IAV PR8 strain [6]; [9]): significantly reduced in a dosage-dependent manner
protein level of IAV (Western blot) (IAV PR8 strain [6]; [9]): significantly reduced in a dosage-dependent manner
IAV NP level (immunostaining) (IAV PR8 strain [6]; NHBE cells, m.o.i. 2, 24 hours, 10 µM TFMT): significantly decreased
antiviral activity against IBV (virus RNA, qRT-PCR) (IBV; A549, m.o.i. 1, 24 hours): exhibits an antiviral activity
antiviral activity against IAV (virus RNA, qRT-PCR) (IAV PR8 strain [7]; A549, m.o.i. 1, 24 hours): exhibits an antiviral activity
dependence of the effect on IAV replication on innate immune factors (IAV RNA segment 7) (IAV PR8 strain [7]; A549, m.o.i. 1, 24 hours (FIG. 29)): independent of the IFIT1-dependent isolation of RNA or RIG-I/MDA5 signaling
HAZV replication (HAZV RNA, qRT-PCR) (HAZV [8]): did not inhibit HAZV replication
